Measured values published in patent US12098145B2 (Libra Therapeutics, Inc., priority 2022, dated 2024).

Molecular target: T1, TRPML1 (Homo sapiens, UniProt Q9GZU1)
T1 construct: expressed in transfected cells; host or cells: HEK T-REx cells stably expressing GCaMP6f and TRPML1
Experiment: Cellular TRPML1 assay (FLIPR, GCaMP6f calcium read-out)
Format: cell-based
Details: HEKT-REx/GCaMP6f/TRPML1 cells, FLIPR TETRA, kinetic response over 300 seconds; read-out: TRPML1 FLIPR pEC50 (converted)
Protocol: Example A: Cellular TRPML1 Assay
The final clone for the TRPML1 assay is HEKT-REx/GCaMP6f/TRPML1. GCaMP6f is a genetically encoded calcium indicator that is stably expressed in this cell line and used as a fluorescent read-out.
Experiments were performed in 384 MTP format. Cells are seeded at 15000 cells/well in 20 μl/well of Optimem+0.5% FBS without selection antibiotics. Twenty-four hours later, cells are assayed for the response to various compounds using the Ca^2+ sensitive GCaMP6f protein stably expressed in the cells as readout.
The experiment was performed in a 384-well format according to the following procedures: • 24 h after seeding, the cells were pre-incubated at room temperature for about 10 min. • Started the experiment at the FLIPR^TETRA by injecting 10 μL/w of 3× concentrated test compounds and controls in Ca^2+ free Tyrode's buffer. Monitored the kinetic response over a period of 300 seconds. • Final DMSO concentration: 0.5%
Data from FLIPR^TETRA measurements were analyzed with the Genedata Screener© software.

T1 sequence (Q9GZU1 whole entry): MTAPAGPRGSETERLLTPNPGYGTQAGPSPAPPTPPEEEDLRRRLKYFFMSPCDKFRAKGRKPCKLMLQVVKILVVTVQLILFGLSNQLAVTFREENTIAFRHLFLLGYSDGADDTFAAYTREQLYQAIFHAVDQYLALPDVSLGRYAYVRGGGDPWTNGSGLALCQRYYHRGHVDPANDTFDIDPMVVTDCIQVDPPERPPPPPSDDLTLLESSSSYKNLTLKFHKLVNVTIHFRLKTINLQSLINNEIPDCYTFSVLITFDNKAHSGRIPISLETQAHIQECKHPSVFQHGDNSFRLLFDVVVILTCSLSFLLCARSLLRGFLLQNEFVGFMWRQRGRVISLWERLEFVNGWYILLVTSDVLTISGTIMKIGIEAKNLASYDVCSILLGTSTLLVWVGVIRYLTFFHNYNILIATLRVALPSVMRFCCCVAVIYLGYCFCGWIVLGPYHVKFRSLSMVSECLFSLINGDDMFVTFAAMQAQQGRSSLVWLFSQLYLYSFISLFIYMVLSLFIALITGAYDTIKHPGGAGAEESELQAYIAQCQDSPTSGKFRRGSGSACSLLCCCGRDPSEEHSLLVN

Row | Compound | EC50 [nM]
1 | CC1(C)CN(c2nc(C(=O)Nc3cc(F)c(OC4CCCOC4)c(F)c3)c(CC(F)(F)F)o2)C1 (racemic) [Example 72, N-(3,5-difluoro-4-((tetrahydro-2H-pyran-3-yl)oxy)phenyl)-2-(3,3-dimethylazetidin-1-yl)-5-(2,2,2-trifluoroethyl)oxazole-4-carboxamide] | 10 to 1000
2 | O=C(Nc1ccc(OC2CCCC2(F)F)c(F)c1)c1nc(N2Cc3ccccc3C2)oc1CC(F)(F)F (stereo not shown) [Example 1, N-{4-[(2,2-difluorocyclopentyl)oxy]-3-fluorophenyl}-2-(2,3-dihydro-1H-isoindol-2-yl)-5-(2,2,2-trifluoroethyl)-1,3-oxazole-4-carboxamide] | 10000 to 100000
3 | N#CC1CN(c2nc(C(=O)Nc3ccc(OC4CCCC4(F)F)c(F)c3)c(CC(F)(F)F)o2)C1 (stereo not shown) [Example 2, 2-(3-cyanoazetidin-1-yl)-N-{4-[(2,2-difluorocyclopentyl)oxy]-3-fluorophenyl}-5-(2,2,2-trifluoroethyl)-1,3-oxazole-4-carboxamide] | 1000 to 10000
4 | O=C(Nc1ccc(OC2CCCC2(F)F)c(F)c1)c1nc(N2CCc3ccccc32)oc1CC(F)(F)F (stereo not shown) [Example 5, N-(4-((2,2-difluorocyclopentyl)oxy)-3-fluorophenyl)-2-(indolin-1-yl)-5-(2,2,2-trifluoroethyl)oxazole-4-carboxamide] | 1000 to 10000
5 | COCC1CCN(c2nc(C(=O)Nc3ccc(OC4CCCC4(F)F)c(F)c3)c(CC(F)(F)F)o2)C1 (stereo not shown) [Example 7, N-(4-((2,2-difluorocyclopentyl)oxy)-3-fluorophenyl)-2-(3-(methoxymethyl)pyrrolidin-1-yl)-5-(2,2,2-trifluoroethyl)oxazole-4-carboxamide] | 1000 to 10000
6 | COC1CN(c2nc(C(=O)Nc3ccc(OC4CCCC4(F)F)c(F)c3)c(CC(F)(F)F)o2)C1 (stereo not shown) [Example 8, N-(4-((2,2-difluorocyclopentyl)oxy)-3-fluorophenyl)-2-(3-methoxyazetidin-1-yl)-5-(2,2,2-trifluoroethyl)oxazole-4-carboxamide] | 1000 to 10000
7 | O=C(Nc1ccc(OC2CCCC2(F)F)c(F)c1)c1nc(N2C3CCC2CC3)oc1CC(F)(F)F (stereo not shown) [Example 9, 2-{7-azabicyclo[2.2.1]heptan-7-yl}-N-{4-[(2,2-difluorocyclopentyl)oxy]-3-fluorophenyl}-5-(2,2,2-trifluoroethyl)oxazole-4-carboxamide] | 1000 to 10000
8 | O=C(Nc1ccc(OC2CCCC2(F)F)c(F)c1)c1nc(N2CC3C(C2)C3(F)F)oc1CC(F)(F)F (stereo not shown) [Example 10, 2-{6,6-difluoro-3-azabicyclo[3.1.0]hexan-3-yl}-N-{4-[(2,2-difluorocyclopentyl)oxy]-3-fluorophenyl}-5-(2,2,2-trifluoroethyl)oxazole-4-carboxamide] | 1000 to 10000
9 | O=C(Nc1ccc(OC2CCCC2(F)F)c(F)c1)c1nc(N2CCCC23CC3)oc1CC(F)(F)F (stereo not shown) [Example 11, N-(4-((2,2-difluorocyclopentyl)oxy)-3-fluorophenyl)-2-(4-azaspiro[2.4]heptan-4-yl)-5-(2,2,2-trifluoroethyl)oxazole-4-carboxamide] | 1000 to 10000
10 | O=C(Nc1ccc(OC2CCCC2(F)F)c(F)c1)c1nc(N2CC3CCOC3C2)oc1CC(F)(F)F (stereo not shown) [Example 12, N-(4-((2,2-difluorocyclopentyl)oxy)-3-fluorophenyl)-2-(hexahydro-5H-furo[2,3-c]pyrrol-5-yl)-5-(2,2,2-trifluoroethyl)oxazole-4-carboxamide] | 1000 to 10000
11 | O=C(Nc1ccc(OC2CCCC2(F)F)c(F)c1)c1nc(N2CC3(CCOCC3)C2)oc1CC(F)(F)F (stereo not shown) [Example 14, N-(4-((2,2-difluorocyclopentyl)oxy)-3-fluorophenyl)-2-(7-oxa-2-azaspiro[3.5]nonan-2-yl)-5-(2,2,2-trifluoroethyl)oxazole-4-carboxamide] | 1000 to 10000
12 | O=C(Nc1ccc(OC2CCCC2(F)F)c(F)c1)c1nc(N2CC(F)(F)C2)oc1CC(F)(F)F (stereo not shown) [Example 16, 2-(3,3-difluoroazetidin-1-yl)-N-{4-[(2,2-difluorocyclopentyl)oxy]-3-fluorophenyl}-5-(2,2,2-trifluoroethyl)oxazole-4-carboxamide] | 10 to 1000
13 | O=C(Nc1ccc(OC2CCCC2(F)F)c(F)c1)c1nc(N2CC(C(F)(F)F)C2)oc1CC(F)(F)F (stereo not shown) [Example 18, N-(4-((2,2-difluorocyclopentyl)oxy)-3-fluorophenyl)-5-(2,2,2-trifluoroethyl)-2-(3-(trifluoromethyl)azetidin-1-yl)oxazole-4-carboxamide] | 10 to 1000
14 | O=C(Nc1ccc(OC2CCCC2(F)F)c(F)c1)c1nc(N2CC3CCCC3C2)oc1CC(F)(F)F (stereo not shown) [Example 23, N-(4-((2,2-difluorocyclopentyl)oxy)-3-fluorophenyl)-2-(hexahydrocyclopenta[c]pyrrol-2(1H)-yl)-5-(2,2,2-trifluoroethyl)oxazole-4-carboxamide] | 10 to 1000
15 | CC(C)OC1CN(c2nc(C(=O)Nc3ccc(OC4CCCC4(F)F)c(F)c3)c(CC(F)(F)F)o2)C1 (stereo not shown) [Example 24, N-{4-[(2,2-difluorocyclopentyl)oxy]-3-fluorophenyl}-2-[3-(propan-2-yloxy)azetidin-1-yl]-5-(2,2,2-trifluoroethyl)oxazole-4-carboxamide] | 1000 to 10000
16 | O=C(Nc1ccc(N2CCCCC2)c(F)c1)c1nc(N2CCC3(CC2)CS(=O)(=O)C3)oc1CC(F)(F)F [Example 25, 2-(2,2-dioxo-2-thia-7-azaspiro[3.5]nonan-7-yl)-N-[3-fluoro-4-(piperidin-1-yl)phenyl]-5-(2,2,2-trifluoroethyl) oxazole-4-carboxamide] | 10000 to 100000
17 | O=C(Nc1ccc(N2CCCCC2)c(F)c1)c1nc(N2C[C@H]3CCO[C@H]3C2)oc1CC(F)(F)F [Example 26, 2-[(3aR,6aR)-hexahydro-5H-furo[2,3-c]pyrrol-5-yl]-N-[3-fluoro-4-(piperidin-1-yl)phenyl]-5-(2,2,2-trifluoroethyl)oxazole-4-carboxamide] | 1000 to 10000
18 | O=C(Nc1ccc(N2CCCCC2)c(F)c1)c1nc(N2CCC3(CC3)C2)oc1CC(F)(F)F [Example 27, 2-{5-azaspiro[2.4]heptan-5-yl}-N-[3-fluoro-4-(piperidin-1-yl)phenyl]-5-(2,2,2-trifluoroethyl)-1,3-oxazole-4-carboxamide] | 1000 to 10000
19 | CC1CCCN1c1nc(C(=O)Nc2ccc(N3CCCCC3)c(F)c2)c(CC(F)(F)F)o1 (stereo not shown) [Example 29, N-(3-fluoro-4-(piperidin-1-yl)phenyl)-2-(2-methylpyrrolidin-1-yl)-5-(2,2,2-trifluoroethyl)oxazole-4-carboxamide] | 1000 to 10000
20 | O=C(Nc1cc(F)c(OC2CC3C[C@H]3C2)c(F)c1)c1nc(N2CC3(C2)CC(F)(F)C3)oc1CC(F)(F)F (stereo partly drawn) [Example 34, N-(4-(cis-bicyclo[3.1.0]hexan-3-yloxy)-3,5-difluorophenyl)-2-(6,6-difluoro-2-azaspiro[3.3]heptan-2-yl)-5-(2,2,2-trifluoroethyl)oxazole-4-carboxamide] | 10 to 1000
21 | O=C(Nc1cc(F)c(OC2CC3C[C@H]3C2)c(F)c1)c1nc(N2CCC3(COC3)C2)oc1CC(F)(F)F (stereo partly drawn) [Example 35, N-(4-{cis-bicyclo[3.1.0]hexan-3-yloxy}-3,5-difluorophenyl)-2-{2-oxa-6-azaspiro[3.4]octan-6-yl}-5-(2,2,2-trifluoroethyl)oxazole-4-carboxamide] | 10 to 1000
22 | CC1(C)CN(c2nc(C(=O)Nc3cc(F)c(OC4CC5C[C@H]5C4)c(F)c3)c(CC(F)(F)F)o2)C1 (stereo partly drawn) [Example 37, N-(4-{cis-bicyclo[3.1.0]hexan-3-yloxy}-3,5-difluorophenyl)-2-(3,3-dimethylazetidin-1-yl)-5-(2,2,2-trifluoroethyl)oxazole-4-carboxamide] | 10 to 1000
23 | O=C(Nc1cc(F)c(OC2CC3C[C@H]3C2)c(F)c1)c1nc(N2CC3CCCC3C2)oc1CC(F)(F)F (stereo partly drawn) [Example 40, N-(4-{cis-bicyclo[3.1.0]hexan-3-yloxy}-3,5-difluorophenyl)-2-{octahydrocyclopenta[c]pyrrol-2-yl}-5-(2,2,2-trifluoroethyl)oxazole-4-carboxamide] | 10 to 1000
24 | O=C(Nc1cc(F)c(OC2CC3C[C@H]3C2)c(F)c1)c1nc(N2CC3(CCCC3)C2)oc1CC(F)(F)F (stereo partly drawn) [Example 41, N-(4-(cis-bicyclo[3.1.0]hexan-3-yloxy)-3,5-difluorophenyl)-2-(2-azaspiro[3.4]octan-2-yl)-5-(2,2,2-trifluoroethyl)oxazole-4-carboxamide] | 10 to 1000
25 | O=C(Nc1ccc(OCC(F)(F)F)c(F)c1)c1nc(N2CCCC2)oc1CC(F)(F)F [Example 42, N-(3-fluoro-4-(2,2,2-trifluoroethoxy)phenyl)-2-(pyrrolidin-1-yl)-5-(2,2,2-trifluoroethyl)oxazole-4-carboxamide] | 1000 to 10000
26 | COC1CCC(Oc2ccc(NC(=O)c3nc(N4CCCC4)oc3CC(F)(F)F)cc2F)C1 (stereo not shown) [Example 43, N-{3-fluoro-4-[(3-methoxycyclopentyl)oxy]phenyl}-2-(pyrrolidin-1-yl)-5-(2,2,2-trifluoroethyl)oxazole-4-carboxamide] | 1000 to 10000
27 | O=C(Nc1ccc(OC2CC(F)(F)C2)c(F)c1)c1nc(N2CCCC2)oc1CC(F)(F)F [Example 44, N-[4-(3,3-difluorocyclobutoxy)-3-fluorophenyl]-2-(pyrrolidin-1-yl)-5-(2,2,2-trifluoroethyl)oxazole-4-carboxamide] | 1000 to 10000
28 | CC1(C)CC(Oc2ccc(NC(=O)c3nc(N4CCCC4)oc3CC(F)(F)F)cc2F)CO1 (stereo not shown) [Example 45, N-{4-[(5,5-dimethyloxolan-3-yl)oxy]-3-fluorophenyl}-2-(pyrrolidin-1-yl)-5-(2,2,2-trifluoroethyl)oxazole-4-carboxamide] | 1000 to 10000
